Measurements taken from patent publication US20170137458A1, “OXYSTEROLS FOR USE IN THE TREATMENT AND PREVENTION OF DISEASES CAUSED BY VIRUSES” (priority 2014, published 2017).

Columns and labels:
[1] = system: human rotavirus; experiment: Target identification by siRNA sensitization (TISS), human rotavirus, Caco2 cells; conditions: oxysterol at its EC50
Method: This mechanism of action vis-à-vis the rotavirus was therefore investigated, performing a target identification assay by means of sensitization with short interfering RNA (siRNA). The Caco2 cells (for the experiments with human rotavirus) or the HeLa cells (for the experiments with human papillomavirus) were seeded in a plate with 24 wells; during seeding, the cells were transfected with siRNA specific for OSBP and VAPA (at a concentration of 20 nM). […] After one day, the medium was removed and the cells inoculated with the respective viruses in the same time, temperature and MOI conditions described in the protocols of the infectivity or neutralization assays. The number of infected cells was evaluated as described in the preceding paragraphs.

[2] = system: human rotavirus DS-1; experiment: Infectivity assay for rotavirus, MA104 cells, strain DS-1
Method: The strains of human rotavirus Wa (ATCC® VR-2018), WI61 (ATCC® VR-2551), HRV 408 (ATCC® VR-2273), HRV 248 (ATCC® VR-2274) and DS-1 (ATCC® VR-2550) were acquired from the American Tissue Culture Collection (ATCC); the viruses were activated with 5 μg/ml porcine pancreatic trypsin of type IX (Sigma, St. Louis, Mo.) for 30 minutes at 37° C. and propagated in MA104 cells using MEM containing 0.5 μg of trypsin per ml as described previously (27).
The antiviral effectiveness of the oxysterols of the invention was determined by means of infectivity inhibition assay. The assays were performed with confluent monolayers of MA104 cells seeded in plates with 96 wells, as described previously (28). […] The control samples were prepared by treating the cells with culture medium with the addition of equal volumes of ethanol. The cells were then washed with medium, and the rotavirus infection was performed at a multiplicity of infection (MOI) of 0.02. After the infection, the cells were washed with medium and incubated at 37° C. in an incubator humidified at 5% (vol/vol) CO2-95% (vol/vol) of air. After 16 hours, the infected cells were fixed with a cold acetone-methanol mixture (50:50), and the virus titres were determined by means of indirect immunocytochemistry. The inhibition of the virus infectivity was expressed as a percentage comparing the mean number of infective events in the treated and non-treated samples±the standard deviations. Where possible, the values of the oxysterol concentrations able to determine 50% or 90% of the antiviral effect (EC50 and EC90 respectively) were calculated by means of regression analysis using the dose-response curves generated by the experimental data, with the use of PRISM 5.00 (GraphPad Software, San Diego, Calif., USA).

[3] = system: rotavirus; experiment: Assay on adhesion of the rotavirus to the cell surface; format: cell-based; conditions: MA104 cells, 5.6 μM for 20 hours, MOI 3
Method: For the assays on bonding of the rotavirus to the surface of MA104 cells, monolayers of confluent cells in plates with 24 wells were treated at 37° C. with 25- or 27-hydroxycholesterol at 1.9 μM and 5.6 μM for 20 hours. The cells were then washed and cooled on ice for 20 minutes. The infectivity of the virus was activated with 5 μg of porcine trypsin (Sigma)/ml for 30 minutes at 37° C. The activated virus, which had been cooled to 4° C., was left to adhere to the cells in ice for 1 hour at an MOI of 3. Lastly, the cells were washed with cold MEM; cold MEM was then added to the cells, which underwent two freezing-thawing cycles, in order to allow detachment of the viral particles bonded to the cell surface; the cell lysate was incubated at 37° C. for 30 minutes in the presence of […] of porcine trypsin/ml, subsequently clarified by means of centrifugation (1200 rpm, 10 minutes).
The titre of the virus population bound to the cells was determined by means of indirect immunocytochemistry performed on monolayers of MA104 cells infected with serial dilutions of the virus collected. The results are illustrated by FIG. 9; in the graph, the titre of the viral population bound to the surface of the treated cells is expressed in percentage terms with respect to the non-treated control and the error bars represent the standard deviation. […]

[4] = system: TLR3; experiment: Quantitative real time RT-PCR of TLR-3 in Caco2 cells; format: cell-based, human; conditions: CaCo2 intestinal cells, 1.9 μM, 30 minutes to 6 hours
Method: The Caco2 cells were cultivated in DMEM medium containing 10% serum and seeded in 25 cm^2 flasks (8 million confluence cells). The next day the cells were treated, in DMEM medium containing 2% serum, with 1.9 μM 25OHC or 27OHC (dissolved in ethanol) for 30 minutes, 1, 2, 3, 4, 5 or 6 hours. Extraction of the total RNA was performed using the TRIzol Reagent (Applied Biosystems, Monza, Italy) and the quantity and purity (A260/A280 ratio) of the extracted RNA were spectrophotometrically measured. Subsequently, 2 μg of RNA were retrotranscribed using the High-Capacity cDNA Reverse Transcription Kit (Applied Biosystems). Quantitative RT-PCR was performed with 30 ng of cDNA using the “TaqMan Gene Expression Assay kits” for TLR-3 and β-actin, TaqMan Fast Universal PCR Master Mix, and 7500 Fast Real-Time PCR System (Applied Biosystems). For each gene considered, the threshold cycle (Ct) was determined and the results were normalized using β-actin as a reference gene. The relative quantification was performed using a mathematical method previously published (29). In FIGS. 1a-1b, the results are reported as increment of the genic expression (Fold change, Fc) of the treated samples with respect to the controls.

In the case of C[C@H](CCCC(C)(C)O)[C@H]1CC[C@H]2[C@@H]3CC=C4C[C@@H](O)CC[C@]4(C)[C@H]3CC[C@]12C [25OHC, 25-hydroxycholesterol], the “antiviral activity in cells with OSBP silenced” value ([1]; OSBP siRNA 20 nM) is reported as “higher”, the “antiviral activity in cells with VAP-A silenced” value ([1]; VAPA siRNA 20 nM) is reported as “higher” and the EC50 [2] is reported as 270 nM. The EC90 [2] was 5.77 µM, the “titre of the viral population bound to the cell surface” value [3] was “reduce in a statistically significant manner (p<0.05) the ability of the virus to adhere to the cell surface” and the TLR3 expression [4] was “marked hyperexpression of TLR3”.
